Assay results as given in ChEMBL document CHEMBL1155076, “Synthesis and pharmacological evaluation of novel gamma-aminobutyric acid type B (GABAB) receptor agonists as gastroesophageal reflux inhibitors” (J Med Chem, 2008).

Experiments:
CHO-K1 = experiment: Intrinsic activity at human recombinant GABAB receptor expressed in CHO-K1 cells assessed as inhibition of intracellular calcium release by FLIPR relative to GABA; type: cell-based
[1] = Displacement of [3H]GABA from GABABreceptor in rat brain synaptic membranes; type: cell membranes, Membrane
[2] = Agonist activity at human recombinant GABABreceptor expressed in CHO-K1 cells assessed as inhibition of intracellular calcium release by FLIPR; type: functional, cell-based
Canis familiaris = species: Canis familiaris; experiment: Inhibition of transient lower esophageal sphincter relaxation in dog; type: functional; details: Canis lupus familiaris
Mus musculus = experiment: Toxicity in sc dosed mouse assessed as subcutaneous dose producing 2 degC decrease in body temperature; type: organism-based; details: in vivo
[3] = Bioavailability in dog; type: ADME, organism-based, Canis lupus familiaris; details: in vivo
[4] = Bioavailability in rat; type: ADME, organism-based; details: in vivo

**Q.** Which Intrinsic activity (CHO-K1) does the source give for NCC(CC(=O)O)c1ccc(Cl)cc1 (stereo not given) here?
**A.** 1

**Q.** With CP(=O)(O)CC(F)CN (stereo not given) as the compound, how does the Ki [1] read?
**A.** 14 nM

**Q.** And the EC50 [2]?
**A.** 23 nM

**Q.** And the Intrinsic activity (CHO-K1)?
**A.** 1

**Q.** Which results are given for CP(=O)(O)C[C@H](O)CN?
**A.** Ki [1]: 840 nM; EC50 [2]: 600 nM; Intrinsic activity (CHO-K1): 1

**Q.** Which Ki [1] does the source give for NCC(F)C[PH](=O)O (stereo not given) here?
**A.** 10 nM

**Q.** What about the EC50 [2] of the same compound?
**A.** 15 nM

**Q.** And the Intrinsic activity (CHO-K1)?
**A.** 1

**Q.** What does the source list for NC[C@@H](O)C[PH](=O)O?
**A.** Ki [1]: 2100 nM; EC50 [2]: 1100 nM; Intrinsic activity (CHO-K1): 1

**Q.** What does the source list for NC[C@@H](F)C[PH](=O)O [LESOGABERAN]?
**A.** Ki [1]: 5.1 nM; EC50 [2]: 8.64 nM; Intrinsic activity (CHO-K1): 1

**Q.** Which results are given for CP(=O)(O)C[C@@H](F)CN?
**A.** Ki [1]: 480 nM; EC50 [2]: 1700 nM; Intrinsic activity (CHO-K1): 1

**Q.** Which Ki [1] does the source give for NCC(O)C[PH](=O)O (stereo not given) here?
**A.** 94 nM

**Q.** And the EC50 [2]?
**A.** 220 nM

**Q.** And the Intrinsic activity (CHO-K1)?
**A.** 1

**Q.** With CP(=O)(O)C[C@@H](O)CN as the compound, how does the Ki [1] read?
**A.** 180 nM

**Q.** What about the EC50 [2] of the same compound?
**A.** 150 nM

**Q.** What about the Intrinsic activity (CHO-K1) of the same compound?
**A.** 1

**Q.** What about the ED50 (Canis familiaris) of the same compound?
**A.** 0.17 µmol/kg

**Q.** What about the Activity (Mus musculus) of the same compound?
**A.** 5.4 µmol/kg

**Q.** For NC[C@H](F)C[PH](=O)O, which Ki [1] is on record?
**A.** 70 nM

**Q.** What about the EC50 [2] of the same compound?
**A.** 250 nM

**Q.** And the Intrinsic activity (CHO-K1)?
**A.** 1

**Q.** With NC[C@H](O)C[PH](=O)O as the compound, how does the Ki [1] read?
**A.** 50 nM

**Q.** And the EC50 [2]?
**A.** 130 nM

**Q.** What about the Intrinsic activity (CHO-K1) of the same compound?
**A.** 1

**Q.** What about the ED50 (Canis familiaris) of the same compound?
**A.** 7 µmol/kg

**Q.** What about the Activity (Mus musculus) of the same compound?
**A.** > 8000 µmol/kg

**Q.** What about the bioavailability [3] of the same compound?
**A.** 88%

**Q.** What about the bioavailability [4] of the same compound?
**A.** 78%

**Q.** With CP(=O)(O)CCCN as the compound, how does the Intrinsic activity (CHO-K1) read?
**A.** 1

**Q.** With CP(=O)(O)C[C@H](F)CN as the compound, how does the Ki [1] read?
**A.** 4.3 nM

**Q.** And the EC50 [2]?
**A.** 14 nM

**Q.** And the Intrinsic activity (CHO-K1)?
**A.** 1

**Q.** For CP(=O)(O)CC(=O)CN, which Ki [1] is on record?
**A.** 200 nM

**Q.** And the EC50 [2]?
**A.** 270 nM

**Q.** What about the Intrinsic activity (CHO-K1) of the same compound?
**A.** 1

**Q.** With NCCC[PH](=O)O as the compound, how does the Ki [1] read?
**A.** 15 nM

**Q.** And the EC50 [2]?
**A.** 19 nM

**Q.** And the Intrinsic activity (CHO-K1)?
**A.** 1

**Q.** Which Ki [1] does the source give for NCC(=O)C[PH](=O)O here?
**A.** 48 nM

**Q.** What about the EC50 [2] of the same compound?
**A.** 81 nM

**Q.** And the Intrinsic activity (CHO-K1)?
**A.** 1
